What follows are compounds tested against T1, Wee1 kinase domain (Homo sapiens, UniProt P30291) (assay: Wee1 Kinase Biochemical Assay (ADP-Glo)). Details: class symbols; 1 nM Wee1 enzyme, 15 uM ATP, 4 hours at 25° C.
T1 construct: Wee1 kinase domain was purchased from Carna (catalog #05-177); purchased Carna 05-177
Method in brief: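 ADP-Glo luminescence readout of ADP produced by 1 nM kinase domain phosphorylating Poly(Lys,Tyr 4:1) (2 ng/mL) at 15 uM ATP. Reaction ran 4 h, 25 °C, in Tris/MgCl2 buffer with BSA and DTT. Inhibition scaled between DMSO (high) and saturating control inhibitor (low).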

T1 sequence (P30291 299-569 limits assumed): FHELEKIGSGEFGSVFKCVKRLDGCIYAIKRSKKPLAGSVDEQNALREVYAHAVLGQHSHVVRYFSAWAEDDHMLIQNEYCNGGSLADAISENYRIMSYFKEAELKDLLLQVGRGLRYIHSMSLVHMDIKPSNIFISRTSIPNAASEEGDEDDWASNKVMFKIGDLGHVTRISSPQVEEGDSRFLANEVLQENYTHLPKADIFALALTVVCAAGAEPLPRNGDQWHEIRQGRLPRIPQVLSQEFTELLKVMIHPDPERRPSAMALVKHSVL

IC50 [nM]	Structure (SMILES)
10 to 100	CN1C[C@H]2C[C@@H]1CN2c1ccc(Nc2ncc3c(n2)N(c2cccc(C4(O)CC4)n2)[C@H]2CC(C)(C)OC[C@@]32C)cc1 [Example 647, 1-(6-((4bS,8aS)-4b,7,7-trimethyl-2-((4-((1R,4R)-5-methyl-2,5-diazabicyclo[2.2.1]heptan-2-yl)phenyl)amino)-4b,7,8,8a-tetrahydropyrano[3′,4′:4,5]pyrrolo[2,3-d]pyrimidin-9(5H)-yl)pyridin-2-yl)cyclopropan-1-ol]
10 to 100	C[C@H]1CCC(=O)N1c1cccc(N2c3nc(Nc4ccc(N5C[C@@H]6C[C@H]5CN6C)cc4)ncc3[C@]3(C)COC(C)(C)C[C@H]23)n1 [Example 650, (S)-5-methyl-1-(6-((4bS,8aS)-4b,7,7-trimethyl-2-((4-((1S,4S)-5-methyl-2,5-diazabicyclo[2.2.1]heptan-2-yl)phenyl)amino)-4b,7,8,8a-tetrahydropyrano[3′,4′:4,5]pyrrolo[2,3-d]pyrimidin-9(5H)-yl)pyridin-2-yl)pyrrolidin-2-one]
10 to 100	Cc1cc(Nc2ncc3c(n2)N(c2cccc(N4CCCC4=O)n2)[C@H]2CC(C)(C)OC[C@@]32C)ccc1N1C[C@@H]2C[C@H]1CN2C [Example 653, 1-(6-((4bS,8aS)-4b,7,7-trimethyl-2-((3-methyl-4-((1S,4S)-5-methyl-2,5-diazabicyclo[2.2.1]heptan-2-yl)phenyl)amino)-4b,7,8,8a-tetrahydropyrano[3′,4′:4,5]pyrrolo[2,3-d]pyrimidin-9(5H)-yl)pyridin-2-yl)pyrrolidin-2-one]
10 to 100	Cc1cc(Nc2ncc3c(n2)N(c2cccc(N4CCOC4=O)n2)[C@H]2CC(C)(C)OC[C@@]32C)ccc1N1C[C@@H]2C[C@H]1CN2C [Example 655, 3-(6-((4bS,8aS)-4b,7,7-trimethyl-2-((3-methyl-4-((1S,4S)-5-methyl-2,5-diazabicyclo[2.2.1]heptan-2-yl)phenyl)amino)-4b,7,8,8a-tetrahydropyrano[3′,4′:4,5]pyrrolo[2,3-d]pyrimidin-9(5H)-yl)pyridin-2-yl)oxazolidin-2-one]
10 to 100	C[C@H]1CCC(=O)N1c1cccc(N2c3nc(Nc4ccc(N5C[C@H]6C[C@@H]5CN6C)cc4)ncc3[C@]3(C)COC(C)(C)C[C@H]23)n1 [Example 656, (S)-5-methyl-1-(6-((4bS,8aS)-4b,7,7-trimethyl-2-((4-((1R,4R)-5-methyl-2,5-diazabicyclo[2.2.1]heptan-2-yl)phenyl)amino)-4b,7,8,8a-tetrahydropyrano[3′,4′:4,5]pyrrolo[2,3-d]pyrimidin-9(5H)-yl)pyridin-2-yl)pyrrolidin-2-one]
10 to 100	Cc1cc(Nc2ncc3c(n2)N(c2cccc(N4CCCC4=O)n2)[C@H]2CC(C)(C)OC[C@@]32C)ccc1N1C[C@H]2C[C@@H]1CN2C [Example 659, 1-(6-((4bS,8aS)-4b,7,7-trimethyl-2-((3-methyl-4-((1R,4R)-5-methyl-2,5-diazabicyclo[2.2.1]heptan-2-yl)phenyl)amino)-4b,7,8,8a-tetrahydropyrano[3′,4′:4,5]pyrrolo[2,3-d]pyrimidin-9(5H)-yl)pyridin-2-yl)pyrrolidin-2-one]
10 to 100	Cc1cc(Nc2ncc3c(n2)N(c2cccc(N4CCOC4=O)n2)[C@H]2CC(C)(C)OC[C@@]32C)ccc1N1C[C@H]2C[C@@H]1CN2C [Example 661, 3-(6-((4bS,8aS)-4b,7,7-trimethyl-2-((3-methyl-4-((1R,4R)-5-methyl-2,5-diazabicyclo[2.2.1]heptan-2-yl)phenyl)amino)-4b,7,8,8a-tetrahydropyrano[3′,4′:4,5]pyrrolo[2,3-d]pyrimidin-9(5H)-yl)pyridin-2-yl)oxazolidin-2-one]
10 to 100	CC1(C)C[C@@H]2N(c3cccc(N4CCCC4=O)n3)c3nc(Nc4ccc(C5CNC5)cc4)ncc3[C@]2(C)CO1 [Example 663, 1-(6-((4bS,8aS)-2-((4-(azetidin-3-yl)phenyl)amino)-4b,7,7-trimethyl-4b,7,8,8a-tetrahydropyrano[3′,4′:4,5]pyrrolo[2,3-d]pyrimidin-9(5H)-yl)pyridin-2-yl)pyrrolidin-2-one]
10 to 100	CC1(C)C[C@@H]2N(c3cccc(N4CCOC4=O)n3)c3nc(Nc4ccc([C@]5(C)CCNC5)cc4)ncc3[C@]2(C)CO1 [Example 665, 3-(6-((4bS,8aS)-46,7,7-trimethyl-2-((4-((S)-3-methylpyrrolidin-3-yl)phenyl)amino)-4b,7,8,8a-tetrahydropyrano[3′,4′:4,5]pyrrolo[2,3-d]pyrimidin-9(5H)-yl)pyridin-2-yl)oxazolidin-2-one]
10 to 100	CC1(C)C[C@@H]2N(c3cccc(N4CCOC4=O)n3)c3nc(Nc4ccc(C5CNC5)cc4)ncc3[C@]2(C)CO1 [Example 667, 3-(6-((4bS,8aS)-2-((4-(azetidin-3-yl)phenyl)amino)-4b,7,7-trimethyl-4b,7,8,8a-tetrahydropyrano[3′,4′:4,5]pyrrolo[2,3-d]pyrimidin-9(5H)-yl)pyridin-2-yl)oxazolidin-2-one]
10 to 100	CN1C[C@H]2C[C@@H]1CN2c1ccc(Nc2ncc3c(n2)N(c2cccc(N4CCOC4=O)n2)[C@H]2CC(C)(C)OC[C@@]32C)cc1F [Example 669, 3-(6-((4bS,8aS)-2-((3-fluoro-4-((1R,4R)-5-methyl-2,5-diazabicyclo[2.2.1]heptan-2-yl)phenyl)amino)-4b,7,7-trimethyl-4b,7,8,8a-tetrahydropyrano[3′,4′:4,5]pyrrolo[2,3-d]pyrimidin-9(5H)-yl)pyridin-2-yl)oxazolidin-2-one]
10 to 100	CN1CC[C@@](C)(c2ccc(Nc3ncc4c(n3)N(c3cccc(N5CCOC5=O)n3)[C@H]3CC(C)(C)OC[C@@]43C)cc2)C1 [Example 671, 3-(6-((4bS,8aS)-2-((4-((S)-1,3-dimethylpyrrolidin-3-yl)phenyl)amino)-4b,7,7-trimethyl-4b,7,8,8a-tetrahydropyrano[3′,4′:4,5]pyrrolo[2,3-d]pyrimidin-9(5H)-yl)pyridin-2-yl)oxazolidin-2-one]
10 to 100	CC1(C)C[C@@H]2N(c3cccc(N4CCOC4=O)n3)c3nc(Nc4ccc([C@H]5CNC[C@H]5F)cc4)ncc3[C@]2(C)CO1 [Example 673, 3-(6-((4bS,8aS)-2-((4-((3S,4S)-4-fluoropyrrolidin-3-yl)phenyl)amino)-4b,7,7-trimethyl-4b,7,8,8a-tetrahydropyrano[3′,4′:4,5]pyrrolo[2,3-d]pyrimidin-9(5H)-yl)pyridin-2-yl)oxazolidin-2-one]
10 to 100	CC1(C)C[C@@H]2N(c3cccc(N4CCOC4=O)n3)c3nc(Nc4ccc([C@@H]5CNC[C@@H]5F)cc4)ncc3[C@]2(C)CO1 [Example 674, 3-(6-((4bS,8aS)-2-((4-((3R,4R)-4-fluoropyrrolidin-3-yl)phenyl)amino)-4b,7,7-trimethyl-4b,7,8,8a-tetrahydropyrano[3′,4′:4,5]pyrrolo[2,3-d]pyrimidin-9(5H)-yl)pyridin-2-yl)oxazolidin-2-one]
10 to 100	CN1C[C@@H]2C[C@H]1CN2c1ccc(Nc2ncc3c(n2)N(c2cccc(N4CCOC4=O)n2)[C@H]2CC(C)(C)OC[C@@]32C)cc1F [Example 677, 3-(6-((4bS,8aS)-2-((3-fluoro-4-((1S,4S)-5-methyl-2,5-diazabicyclo[2.2.1]heptan-2-yl)phenyl)amino)-4b,7,7-trimethyl-4b,7,8,8a-tetrahydropyrano[3′,4′:4,5]pyrrolo[2,3-d]pyrimidin-9(5H)-yl)pyridin-2-yl)oxazolidin-2-one]
10 to 100	CC1(C)C[C@@H]2N(c3cccc(N4CCOC4=O)n3)c3nc(Nc4ccc([C@@H]5CNCC5(F)F)cc4)ncc3[C@]2(C)CO1 [Example 681, 3-(6-((4bS,8aS)-2-((4-((R)-4,4-difluoropyrrolidin-3-yl)phenyl)amino)-4b,7,7-trimethyl-4b,7,8,8a-tetrahydropyrano[3′,4′:4,5]pyrrolo[2,3-d]pyrimidin-9(5H)-yl)pyridin-2-yl)oxazolidin-2-one]
100 to 1000	CC1(C)C[C@@H]2N(c3cccc(N4CCOC4=O)n3)c3nc(Nc4ccc([C@H]5CNCC5(F)F)cc4)ncc3[C@]2(C)CO1 [Example 683, 3-(6-((4bS,8aS)-2-((4-((S)-4,4-difluoropyrrolidin-3-yl)phenyl)amino)-4b,7,7-trimethyl-4b,7,8,8a-tetrahydropyrano[3′,4′:4,5]pyrrolo[2,3-d]pyrimidin-9(5H)-yl)pyridin-2-yl)oxazolidin-2-one]
10 to 100	CN1CC[C@H]2CN(c3ccc(Nc4ncc5c(n4)N(c4cccc(N6CCOC6=O)n4)[C@H]4CC(C)(C)OC[C@@]54C)cc3)C[C@H]21 [Example 685, 3-(6-((4bS,8aS)-4b,7,7-trimethyl-2-((4-((3aS,6aS)-1-methylhexahydropyrrolo[3,4-b]pyrrol-5(1H)-yl)phenyl)amino)-4b,7,8,8a-tetrahydropyrano[3′,4′:4,5]pyrrolo[2,3-d]pyrimidin-9(5H)-yl)pyridin-2-yl)oxazolidin-2-one]
100 to 1000	CN1CC[C@@H]2CN(c3ccc(Nc4ncc5c(n4)N(c4cccc(N6CCCC6=O)n4)[C@H]4CC(C)(C)OC[C@@]54C)cc3)C[C@@H]21 [Example 687, 1-(6-((4bS,8aS)-4b,7,7-trimethyl-2-((4-((3aR,6aR)-1-methylhexahydropyrrolo[3,4-b]pyrrol-5(1H)-yl)phenyl)amino)-4b,7,8,8a-tetrahydropyrano[3′,4′:4,5]pyrrolo[2,3-d]pyrimidin-9(5H)-yl)pyridin-2-yl)pyrrolidin-2-one]
100 to 1000	CN1CC[C@H]2CN(c3ccc(Nc4ncc5c(n4)N(c4cccc(N6CCCC6=O)n4)[C@H]4CC(C)(C)OC[C@@]54C)cc3)C[C@H]21 [Example 689, 1-(6-((4bS,8aS)-4b,7,7-trimethyl-2-((4-((3aS,6aS)-1-methylhexahydropyrrolo[3,4-b]pyrrol-5(1H)-yl)phenyl)amino)-4b,7,8,8a-tetrahydropyrano[3′,4′:4,5]pyrrolo[2,3-d]pyrimidin-9(5H)-yl)pyridin-2-yl)pyrrolidin-2-one]

Source: patent publication US20260166039A1 (SCHRÖDINGER, INC., priority 2022, published 2026)
